Reference: paper PMC11938129, “Gravacin as an inhibitor of the auxin transport-activating protein kinase D6PK in Arabidopsis” (Frontiers in Plant Science, 2025)

How the values were obtained:
D6PK (His-D6PK) [1] = biological target: T1, D6PK (His-D6PK) (Arabidopsis thaliana, UniProt Q9FG74); experiment: surface plasmon resonance (Biacore 8K), steady state affinity model; type: binding
T1 construct: His-tagged recombinant D6PK, expressed in E. coli BL21 (DE3), Ni-NTA purified
T1 sequence (Q9FG74 1-498): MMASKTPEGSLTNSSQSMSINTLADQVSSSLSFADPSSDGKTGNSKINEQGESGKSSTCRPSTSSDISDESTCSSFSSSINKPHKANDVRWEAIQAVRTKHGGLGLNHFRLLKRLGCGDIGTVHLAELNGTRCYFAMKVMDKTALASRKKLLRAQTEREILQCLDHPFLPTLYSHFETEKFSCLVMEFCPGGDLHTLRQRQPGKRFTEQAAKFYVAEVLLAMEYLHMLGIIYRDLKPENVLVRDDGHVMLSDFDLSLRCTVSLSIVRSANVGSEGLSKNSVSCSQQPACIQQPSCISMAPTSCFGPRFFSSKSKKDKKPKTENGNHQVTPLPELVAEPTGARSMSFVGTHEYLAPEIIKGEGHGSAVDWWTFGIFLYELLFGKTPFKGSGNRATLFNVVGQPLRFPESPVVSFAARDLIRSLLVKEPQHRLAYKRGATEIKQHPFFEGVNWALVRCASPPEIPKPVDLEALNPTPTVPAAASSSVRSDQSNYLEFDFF

D6PK (His-D6PK) [2] = biological target: T1, D6PK (His-D6PK); experiment: in vitro kinase assay, […]ATP autoradiography of His-PIN1-HL phosphorylation; type: biochemical; details: partial, dose-dependent inhibition; substrate His-PIN1-HL; 10 mM ATP (so in the source), 10 mM MgCl2, 1 mM DTT, Tris-HCl pH 7.5, 25 °C, 60 min

O=C(O)C=Cc1ccc(-c2ccc(Cl)c(Cl)c2)o1 [gravacin, 3-(5-[3,4-dichlorophenyl]-2-furyl)-acrylic acid]
Kd (D6PK (His-D6PK) [1]): ~334 µM | in vitro kinase assay, [32P]ATP autoradiography of His-PIN1-HL phosphorylation (D6PK (His-D6PK) [2]): His-D6PK-induced phosphorylation of His-PIN1 was partially suppressed by gravacin in a dose-dependent manner
